Paper PMC6837340, “Streptococcal phosphotransferase system imports unsaturated hyaluronan disaccharide derived from host extracellular matrices” (PLoS ONE, 2019)

B1: Streptococcus agalactiae GAG-PTS EIIA^ΔHA (EIIA for unsaturated hyaluronan disaccharide) (natural protein)
chain: MIKIIIVAHGNFPDGILSSLELIAGHQEYVVGINFIAGMSSNDVRVALQREVIDFKEILVLTDLLGGTPFNVSSALSVEYTDKKIKVLSGLNLSMLMEAVLSRTMFEHVDDLVDKVITSSHEGIVDFSTCLATQTAEATFEGGI
notes: PTS EIIA component of the GAG genetic cluster, gene gbs1890, Streptococcus agalactiae (gbs = strain NEM316); 144 residues (Met1-Ile144); Leu131-Ile144 not seen in the crystal structure; Cloned between NdeI and XhoI of pET21b with a reverse primer without a stop codon, so a C-terminal vector-derived His tag is likely (surmised); No PDB id is printed for the structure solved here; also called …

Tests used:
[1] = target: T1, GAG-PTS (EIIABCD; phosphotransferase system for import of unsaturated hyaluronan disaccharide) (Streptococcus agalactiae, UniProt Q8DXF2+Q8DXF3); assay: PTS assay: pyruvate from phosphoenolpyruvate, lactate dehydrogenase-coupled NADH oxidation at […] nm, toluene-treated cells; assay type: cell-based; conditions: 10 mM sugar, 5 mM phosphoenolpyruvate, 5 mM MgCl2, 10 mM NaF, 0.1 M potassium phosphate pH 7.5, 37°C; EIIB-EIIC-EIID deletion mutant as control
T1 construct: gene SAG1899; native complex in toluene-permeabilized wild-type S. agalactiae cells; endogenous EI and HPr also required; EIIA dimer in crystal, 144 residues; with PTS mannose family transporter subunit IIA (EIIA)
T1 sequence (Q8DXF1 entry or part of it, one chain of several, further chain): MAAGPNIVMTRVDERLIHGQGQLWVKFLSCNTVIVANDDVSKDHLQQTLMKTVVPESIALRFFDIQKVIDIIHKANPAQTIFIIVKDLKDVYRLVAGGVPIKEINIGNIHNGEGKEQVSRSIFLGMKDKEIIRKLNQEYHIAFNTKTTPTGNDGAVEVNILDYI
T1 sequence (Q8DXF2 entry or part of it, one chain of several): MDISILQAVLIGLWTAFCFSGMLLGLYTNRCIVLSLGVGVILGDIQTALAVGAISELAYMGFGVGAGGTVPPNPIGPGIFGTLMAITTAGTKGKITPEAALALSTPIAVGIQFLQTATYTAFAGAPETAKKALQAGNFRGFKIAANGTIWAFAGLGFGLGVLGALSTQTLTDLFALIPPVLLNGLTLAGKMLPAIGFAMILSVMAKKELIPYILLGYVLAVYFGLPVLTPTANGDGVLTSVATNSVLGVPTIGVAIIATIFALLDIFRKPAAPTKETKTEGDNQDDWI
T1 sequence (Q8DXF3 entry or part of it, one chain of several): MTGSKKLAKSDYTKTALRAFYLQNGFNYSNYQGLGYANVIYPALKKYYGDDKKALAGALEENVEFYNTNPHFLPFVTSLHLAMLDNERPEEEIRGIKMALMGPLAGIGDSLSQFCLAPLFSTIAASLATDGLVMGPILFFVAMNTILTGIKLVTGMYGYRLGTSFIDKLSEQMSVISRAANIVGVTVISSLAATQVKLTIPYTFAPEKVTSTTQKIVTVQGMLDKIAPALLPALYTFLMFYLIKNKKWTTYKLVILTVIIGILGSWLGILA

[2] = target: the molecule itself; assay: crystal structure; sitting drop vapor diffusion, 20% PEG 3,350, 0.2 M sodium thiocyanate pH 6.9, 20°C; space group P1, six molecules in the asymmetric unit; biological unit judged a dimer with PISA software

Molecule | PTS assay: pyruvate from phosphoenolpyruvate, lactate dehydrogenase-coupled NADH [1] | stoichiometry N [2]
CC(=O)N[C@H]1C(O)O[C@H](CO)[C@@H](O)[C@@H]1O[C@@H]1OC(C(=O)O)=C[C@H](O)[C@H]1O (some centres unmarked) [ΔHA, unsaturated hyaluronan disaccharide] | S. agalactiae imports unsaturated hyaluronan disaccharide using the GAG-PTS encoded in the GAG genetic cluster | –
B1 | – | 2
